Measurements from patent publication US20100273701A1, “USE OF SALUSIN BETA ALONE OR IN COMBINATION WITH OCTREOTIDE AS A THERAPEUTIC AGENT” (priority 2007, published 2010).

System: drug-resistant Mycobacterium tuberculosis
Settings: 10 micrograms per ml; seven days; strain resistant to PAS, streptomycin and isoniazid

C[C@@H](O)[C@@H]1NC(=O)[C@H](CCCCN)NC(=O)[C@@H](Cc2c[nH]c3ccccc23)NC(=O)[C@H](Cc2ccccc2)NC(=O)[C@@H](NC(=O)[C@H](N)Cc2ccccc2)CSSC[C@@H](C(=O)N[C@H](CO)[C@@H](C)O)NC1=O [Peptide 2, D-Phe-Cys-Phe-D-Trp-Lys-Thr-Cys-L-threoninol]
inhibition of the growth of Mycobacterium tuberculosis: 100%

Ala-lle-Phe-Ile-Phe-Ile-Arg-Trp-Leu-Leu-Lys-Leu-Gly-His-His-Gly-Arg-Ala-Pro-Pro-OH [Peptide 1]
inhibition of the growth of Mycobacterium tuberculosis: 100%
